Data published in paper PMC7036753, “Lipidated Analogs of the LL-37-Derived Peptide Fragment KR12—Structural Analysis, Surface-Active Properties and Antimicrobial Activity” (International Journal of Molecular Sciences, 2020).
Converted amounts (≈) assume the structure as drawn. Peptide text beside a SMILES is read from it. * marks the point of attachment. Lauroyl = CCCCCCCCCCCC(=O)*; Decanoyl = CCCCCCCCCC(=O)*; Hexanoyl = CCCCCC(=O)*; Butyryl = CCCC(=O)*

Legend:
[1] = test system: A. baumannii ATCC BAA-1605; format: cell-based, Acinetobacter baumannii; details: ATCC BAA-1605, 18 h
Method: (§1) Examination of antimicrobial activity of the test compounds was conducted on reference strains of bacteria assigned to ESKAPE group of pathogens: Enterococcus faecium ATCC 700221, Klebsiella pneumoniae ATCC 700603, Acinetobacter baumannii ATCC BAA-1605, Pseudomonas aeruginosa ATCC 9027, Klebsiella aerogenes ATCC 13048 (formerly Enterobacter aerogenes) and reference strains of Staphylococcus aureus, namely: S. aureus ATCC 25923, S. aureus ATCC 6538, S. aureus ATCC 33591 (MRSA), S. aureus ATCC 9144 and S. aureus ATCC 12598. All the strains were stored at −80 °C in Roti®-Store cryo vials (Carl Roth GmbH, Karlsruhe, Germany) and before the tests were transferred into fresh Mueller-Hinton Medium (BioMaxima, Lublin, Poland) and incubated for 24 h at 37 °C. Subsequently, each bacterial inoculum was seeded on Mueller-Hinton Agar plates (BioMaxima) and incubated again for 24 h. The cultures prepared in this way were used in further antimicrobial assays and prepared as described above. The MIC values were determined by the broth microdilution method according to Clinical and Laboratory Standards Institute Protocol. For this purpose, initial inoculums of bacteria (0.5 × 10^5 colony forming unit (CFU)/mL) in Mueller–Hinton Broth were exposed to the ranging concentrations of compounds (0.5–256 µg/mL) and incubated for 18 h at 37 °C. The experiments were conducted on 96-well microtiter plates, with a final volume of 100 µL. Cell densities were adjusted spectrophotometrically (Multiskan™ GO Microplate Spectrophotometer, Thermo Scientific) at 600 nm. The MICs were taken as the lowest drug concentration at which a visible growth of microorganisms was inhibited. All experiments were conducted in triplicate and included positive (growth) and negative (sterility) controls.

P. aeruginosa ATCC 9027 = format: cell-based, Pseudomonas aeruginosa; details: ATCC 9027, 18 h
Method: as §1

S. aureus ATCC 6538 = format: cell-based, Staphylococcus aureus; details: ATCC 6538, 18 h
Method: as §1

S. aureus ATCC 25923 = format: cell-based, Staphylococcus aureus; details: ATCC 25923, 18 h
Method: as §1

[2] = test system: S. aureus ATCC 33591 (MRSA); format: cell-based, Staphylococcus aureus; details: ATCC 33591, 18 h
Method: as §1

S. aureus ATCC 9144 = format: cell-based, Staphylococcus aureus; details: ATCC 9144, 18 h
Method: as §1

S. aureus ATCC 12598 = format: cell-based, Staphylococcus aureus; details: ATCC 12598, 18 h
Method: as §1

E. faecium ATCC 700221 = format: cell-based, Enterococcus faecium; details: ATCC 700221, 18 h
Method: as §1

[3] = test system: human keratinocytes (HaCaT); format: cell-based; details: 24 h
Method: The cytotoxicity of test compounds (IC50) was evaluated for human keratinocytes (HaCaT, ATCC) using classic MTT assay on 96-well plates. In this assay, a colorimetric determination of the cell metabolic activity was carried out. Specifically, the color intensity reflects the number of live cells that can be measured spectrophotometrically. […] A day after plating 500 cells per well, a series of concentrations (0.5–500 μg/mL) of the test compounds were added. Dimethyl sulfoxide (DMSO) was used as a control in cells at a final concentration of 1.0% (v/v), which was related to the maximal concentration of the solvent compounds used in the experiment. After 24 h of incubation with test compounds, a medium containing 1 mg/mL of MTT was added up to a final concentration of 0.5 mg/mL and subsequently incubated at 37 °C for 4 h. Then, the medium was aspirated and the formazan product was solubilized with DMSO. The background absorbance at 630 nm was subtracted from that at 570 nm for each well (Epoch, BioTek Instruments, Winooski, VT, USA). Six replicates were conducted for each concentration. All experiments were repeated at least twice and the resulting IC50 values were calculated with a GraFit 7 software (v. 7.0, Erithacus, Berkley, CA, USA).

[4] = test system: K. pneumoniae ATCC 700603; format: cell-based, Klebsiella pneumoniae; details: ATCC 700603, 18 h
Method: as §1

[5] = test system: reference strains of S. aureus; format: cell-based, Staphylococcus aureus; details: reference strains of, 24 h
Method: as §1, with “For this purpose, initial inoculums of bacteria (0.5 × 10^5 colony forming unit (CFU)/mL) in Mueller–Hinton Broth were exposed to the ranging concentrations of compounds (0.5–256 µg/mL) and incubated for 18 h at 37 °C.” left out

K. aerogenes ATCC 13048 = format: cell-based, Klebsiella aerogenes; details: ATCC 13048, 18 h
Method: as §1

[6] = test system: S. aureus ATCC 25923 biofilm; format: cell-based, Staphylococcus aureus; details: ATCC 25923, 24 h
Method: (§2) The MBECs values were determined according to the method reported previously. Briefly, 24-h cultures of S. aureus, namely: S. aureus ATCC 25923, S. aureus ATCC 6538, S. aureus ATCC 33591 (MRSA), S. aureus ATCC 9144 and S. aureus ATCC 12598 were diluted to a concentration of 0.5 × 10^7 CFU/mL and added to the test wells of polystyrene microdilution flat-bottom plates. After 24-h of incubation at 37 °C, the wells were rinsed three times with PBS to remove non-adherent cells. Subsequently, 100 μL of the test compounds over a concentration range 0.5–256 µg/mL were added to each well and incubated again for 24 h at 37 °C. After this period, 20 μL of the resazurin (7-hydroxy-3H-phenoxazin-3-one-10-oxide, 4 mg/mL) solution was added to each well. After 1 h of incubation, the MBECs were read out. The determined values were recorded as the lowest concentration at which the reduction of resazurin (from blue to pink) was lower or equal to 10 ± 0.5% as compared to the positive (100%) and negative (0%) controls. All experiments were performed in triplicate.

[7] = test system: S. aureus ATCC 9144 biofilm; format: cell-based, Staphylococcus aureus; details: ATCC 9144, 24 h
Method: as §2

[8] = test system: S. aureus ATCC 6538 biofilm; format: cell-based, Staphylococcus aureus; details: ATCC 6538, 24 h
Method: as §2

[9] = test system: S. aureus ATCC 33591 (MRSA) biofilm; format: cell-based, Staphylococcus aureus; details: ATCC 33591, 24 h
Method: as §2

[10] = test system: S. aureus ATCC 12598 biofilm; format: cell-based, Staphylococcus aureus; details: ATCC 12598, 24 h
Method: as §2

| Structure (SMILES) | MIC [1] [µg/mL] | MIC (P. aeruginosa ATCC 9027) [µg/mL] | MIC (S. aureus ATCC 6538) [µg/mL] | MIC (S. aureus ATCC 25923) [µg/mL] | MIC [2] [µg/mL] | MIC (S. aureus ATCC 9144) [µg/mL] | MIC (S. aureus ATCC 12598) [µg/mL] | MIC (E. faecium ATCC 700221) [µg/mL] | IC50 [3] [µg/mL] | MIC [4] [µg/mL] | GM (geometric mean of the MIC values against S. aureus) [5] [µg/mL] | MIC (K. aerogenes ATCC 13048) [µg/mL] | MBEC [6] [µg/mL] | MBEC [7] [µg/mL] | MBEC [8] [µg/mL] | MBEC [9] [µg/mL] | MBEC [10] [µg/mL] |
| --- | --- | --- | --- | --- | --- | --- | --- | --- | --- | --- | --- | --- | --- | --- | --- | --- | --- |
| CCCC(=O)N[C@@H](CCCCN)C(=O)N[C@@H](CCCNC(=N)N)C(=O)N[C@H](C(=O)N[C@H](C(=O)N[C@@H](CCC(N)=O)C(=O)N[C@@H](CCCNC(=N)N)C(=O)N[C@H](C(=O)N[C@@H](CCCCN)C(=O)N[C@@H](CC(=O)O)C(=O)N[C@@H](Cc1ccccc1)C(=O)N[C@@H](CC(C)C)C(=O)N[C@@H](CCCNC(=N)N)C(N)=O)[C@@H](C)CC)C(C)C)[C@@H](C)CC [II, C4-KR12-NH2] (Butyryl-KRIVQRIKDFLR-NH2) | >256 | 32 (≈ 19.5 µM) | 32 (≈ 19.5 µM) | 128 (≈ 78 µM) | 128 (≈ 78 µM) | 64 (≈ 39 µM) | 64 (≈ 39 µM) | 4 (≈ 2.44 µM) | 38.73 (≈ 23.6 µM) | 128 (≈ 78 µM) | 73.52 | 128 (≈ 78 µM) | 256 | 128 | 128 | 128 | 128 |
| CCCCCC(=O)N[C@@H](CCCCN)C(=O)N[C@@H](CCCNC(=N)N)C(=O)N[C@H](C(=O)N[C@H](C(=O)N[C@@H](CCC(N)=O)C(=O)N[C@@H](CCCNC(=N)N)C(=O)N[C@H](C(=O)N[C@@H](CCCCN)C(=O)N[C@@H](CC(=O)O)C(=O)N[C@@H](Cc1ccccc1)C(=O)N[C@@H](CC(C)C)C(=O)N[C@@H](CCCNC(=N)N)C(N)=O)[C@@H](C)CC)C(C)C)[C@@H](C)CC [III, C6-KR12-NH2] (Hexanoyl-KRIVQRIKDFLR-NH2) | 16 (≈ 9.59 µM) | 8 (≈ 4.79 µM) | 4 (≈ 2.4 µM) | 16 (≈ 9.59 µM) | 16 (≈ 9.59 µM) | 8 (≈ 4.79 µM) | 8 (≈ 4.79 µM) | 2 (≈ 1.2 µM) | 10.13 (≈ 6.07 µM) | 16 (≈ 9.59 µM) | 9.19 | 16 (≈ 9.59 µM) | 32 | 16 | 16 | 16 | 16 |
| CCCCCCCCCC(=O)N[C@@H](CCCCN)C(=O)N[C@@H](CCCNC(=N)N)C(=O)N[C@H](C(=O)N[C@H](C(=O)N[C@@H](CCC(N)=O)C(=O)N[C@@H](CCCNC(=N)N)C(=O)N[C@H](C(=O)N[C@@H](CCCCN)C(=O)N[C@@H](CC(=O)O)C(=O)N[C@@H](Cc1ccccc1)C(=O)N[C@@H](CC(C)C)C(=O)N[C@@H](CCCNC(=N)N)C(N)=O)[C@@H](C)CC)C(C)C)[C@@H](C)CC [V, C10-KR12-NH2] (Decanoyl-KRIVQRIKDFLR-NH2) | 8 (≈ 4.64 µM) | 8 (≈ 4.64 µM) | 4 (≈ 2.32 µM) | 4 (≈ 2.32 µM) | 4 (≈ 2.32 µM) | 4 (≈ 2.32 µM) | 4 (≈ 2.32 µM) | 2 (≈ 1.16 µM) | 5.97 (≈ 3.46 µM) | 16 (≈ 9.27 µM) | 4.00 | 16 (≈ 9.27 µM) | 32 | 16 | 32 | 32 | 8 |
| CCCCCCCCCCCC(=O)N[C@@H](CCCCN)C(=O)N[C@@H](CCCNC(=N)N)C(=O)N[C@H](C(=O)N[C@H](C(=O)N[C@@H](CCC(N)=O)C(=O)N[C@@H](CCCNC(=N)N)C(=O)N[C@H](C(=O)N[C@@H](CCCCN)C(=O)N[C@@H](CC(=O)O)C(=O)N[C@@H](Cc1ccccc1)C(=O)N[C@@H](CC(C)C)C(=O)N[C@@H](CCCNC(=N)N)C(N)=O)[C@@H](C)CC)C(C)C)[C@@H](C)CC [VI, C12-KR12-NH2] (Lauroyl-KRIVQRIKDFLR-NH2) | 16 (≈ 9.13 µM) | 32 (≈ 18.3 µM) | 32 (≈ 18.3 µM) | 32 (≈ 18.3 µM) | 16 (≈ 9.13 µM) | 32 (≈ 18.3 µM) | 32 (≈ 18.3 µM) | 4 (≈ 2.28 µM) | 7.60 (≈ 4.33 µM) | 32 (≈ 18.3 µM) | 27.86 | 32 (≈ 18.3 µM) | 256 | 64 | 256 | 128 | 32 |
